Key:
[1] = Determination of Log D7.4 (1-octanol/PBS); type: physicochemical; conditions: 1-octanol/PBS pH 7.4; 177Lu-labeled
Description: The lipophilicity of ^177Lu-ESV6, ^177Lu-Bi-ESV6, ^177Lu-Tri-ESV6 and ^177Lu-FAP-2286 was determined as follows. 100 μL aliquots of the radioligand (~1 MBq) in PBS buffer were added to PBS buffer (500 μL, pH 7.4) and 1-octanol (600 μL). The two-layer mixture were vigorously shaken for 10 minutes on a vortex mixer and then centrifuged at 700 rpm for 5 min to facilitate the separation. 100 μL aliquots of both layers were measured in a Packard Cobra Gamma Counter and the partition coefficient was determined by dividing cpm (octanol) by cpm (PBS) and indicated as Log D7.4. • Log D7.4 (^177Lu-ESV6): −4.13 • Log D7.4 (^177Lu-Bi-ESV6): −3.75 • Log D7.4 (^177Lu-Tri-ESV6): −3.10 • Log D7.4 (^177Lu-FAP-2286): −3.05

SK-RC-52.hFAP tumors = test: Quantitative biodistribution in SK-RC-52.hFAP tumor bearing mice; type: in vivo, mouse (female athymic Balb/c AnNRj-Foxn1); conditions: i.v. 250 nmol/kg, 50 MBq/kg
How it was run: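 Female athymic Balb/c nude mice carried subcutaneous SK-RC-52.hFAP tumors (5 million cells, ~300 mm^3). 177Lu-labeled conjugates were given i.v. at 250 nmol/kg, 50 MBq/kg. Tissues gamma-counted at several time points as %ID/g±SD, tumor values corrected for growth rate; tumor-to-organ ratios derived.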

[2] = 6 h post injection, listed as 177Lu-TriESV6-DOTAGA, 360 min

SMILES: N#CC1CC(F)(F)CN1C(=O)CNC(=O)c1ccnc2c(NC(=O)CCC(=O)NCCNC(=O)CCOCC(COCCC(=O)NCCNC(=O)CCC(=O)Nc3cccc4c(C(=O)NCC(=O)N5CC(F)(F)CC5C#N)ccnc34)(COCCC(=O)NCCNC(=O)CCC(=O)Nc3cccc4c(C(=O)NCC(=O)N5CC(F)(F)CC5C#N)ccnc34)NC(=O)CCC(C(=O)O)N3CCN(CC(=O)[O-])CCN(CC(=O)[O-])CCN(CC(=O)[O-])CC3)cccc12.[177Lu+3] (stereo not shown) [^177Lu-Tri-ESV6-DOTAGA]
- Log D7.4 [1]: −3.10
- Tumor to organs ratio, Blood (SK-RC-52.hFAP tumors; 6 h): 260.4
- Injected dose per gram, Blood (SK-RC-52.hFAP tumors; 6 h post injection): 0.25 % ID/g
- Tumor to organs ratio, Blood (SK-RC-52.hFAP tumors; 24 h): 284.8
- Injected dose per gram, Blood (SK-RC-52.hFAP tumors; 24 h post injection): 0.07 % ID/g
- Tumor to organs ratio, Blood (SK-RC-52.hFAP tumors; 48 h): 1925.8
- Injected dose per gram, Blood (SK-RC-52.hFAP tumors; 48 h post injection): 0.01 % ID/g
- Tumor to organs ratio, Blood (SK-RC-52.hFAP tumors; 72 h): 7913.2
- Injected dose per gram, Blood (SK-RC-52.hFAP tumors; 72 h post injection): 0.01 % ID/g
- Tumor to organs ratio, Blood (SK-RC-52.hFAP tumors; 96 h): 3504
- Injected dose per gram, Blood (SK-RC-52.hFAP tumors; 96 h post injection): 0.00 % ID/g
- Tumor to organs ratio, Heart (SK-RC-52.hFAP tumors; 6 h): 215.4
- Injected dose per gram, Heart (SK-RC-52.hFAP tumors; 6 h post injection): 0.23 % ID/g
- Tumor to organs ratio, Heart (SK-RC-52.hFAP tumors; 24 h): 269.1
- Injected dose per gram, Heart (SK-RC-52.hFAP tumors; 24 h post injection): 0.08 % ID/g
- Tumor to organs ratio, Heart (SK-RC-52.hFAP tumors; 48 h): 559.6
- Injected dose per gram, Heart (SK-RC-52.hFAP tumors; 48 h post injection): 0.03 % ID/g
- Tumor to organs ratio, Heart (SK-RC-52.hFAP tumors; 72 h): 344.2
- Injected dose per gram, Heart (SK-RC-52.hFAP tumors; 72 h post injection): 0.07 % ID/g
- Tumor to organs ratio, Heart (SK-RC-52.hFAP tumors; 96 h): 492
- Injected dose per gram, Heart (SK-RC-52.hFAP tumors; 96 h post injection): 0.03 % ID/g
- Tumor to organs ratio, Intestine (SK-RC-52.hFAP tumors; 6 h): 188.9
- Injected dose per gram, Intestine (SK-RC-52.hFAP tumors; 6 h post injection): 0.26 % ID/g
- Tumor to organs ratio, Intestine (SK-RC-52.hFAP tumors; 24 h): 243.1
- Injected dose per gram, Intestine (SK-RC-52.hFAP tumors; 24 h post injection): 0.10 % ID/g
- Tumor to organs ratio, Intestine (SK-RC-52.hFAP tumors; 48 h): 282.6
- Injected dose per gram, Intestine (SK-RC-52.hFAP tumors; 48 h post injection): 0.06 % ID/g
- Tumor to organs ratio, Intestine (SK-RC-52.hFAP tumors; 72 h): 498.0
- Injected dose per gram, Intestine (SK-RC-52.hFAP tumors; 72 h post injection): 0.07 % ID/g
- Tumor to organs ratio, Intestine (SK-RC-52.hFAP tumors; 96 h): 763
- Injected dose per gram, Intestine (SK-RC-52.hFAP tumors; 96 h post injection): 0.02 % ID/g
- Tumor to organs ratio, Kidney (SK-RC-52.hFAP tumors; 6 h): 22.9
- Injected dose per gram, Kidney (SK-RC-52.hFAP tumors; 6 h post injection): 2.14 % ID/g
- Tumor to organs ratio, Kidney (SK-RC-52.hFAP tumors; 24 h): 17.2
- Injected dose per gram, Kidney (SK-RC-52.hFAP tumors; 24 h post injection): 1.16 % ID/g
- Tumor to organs ratio, Kidney (SK-RC-52.hFAP tumors; 48 h): 21.4
- Injected dose per gram, Kidney (SK-RC-52.hFAP tumors; 48 h post injection): 0.78 % ID/g
- Tumor to organs ratio, Kidney (SK-RC-52.hFAP tumors; 72 h): 24.8
- Injected dose per gram, Kidney (SK-RC-52.hFAP tumors; 72 h post injection): 0.83 % ID/g
- Tumor to organs ratio, Kidney (SK-RC-52.hFAP tumors; 96 h): 22
- Injected dose per gram, Kidney (SK-RC-52.hFAP tumors; 96 h post injection): 0.73 % ID/g
- Tumor to organs ratio, Liver (SK-RC-52.hFAP tumors; 6 h): 76.3
- Injected dose per gram, Liver (SK-RC-52.hFAP tumors; 6 h post injection, 360 min): 0.65 % ID/g
- Injected dose per gram, Liver (SK-RC-52.hFAP tumors; [2]): ~ 0.7 % ID/g
- Tumor to organs ratio, Liver (SK-RC-52.hFAP tumors; 24 h): 43.9
- Injected dose per gram, Liver (SK-RC-52.hFAP tumors; 24 h post injection): 0.46 % ID/g
- Tumor to organs ratio, Liver (SK-RC-52.hFAP tumors; 48 h): 56.2
- Injected dose per gram, Liver (SK-RC-52.hFAP tumors; 48 h post injection): 0.31 % ID/g
- Tumor to organs ratio, Liver (SK-RC-52.hFAP tumors; 72 h): 1294.6
- Injected dose per gram, Liver (SK-RC-52.hFAP tumors; 72 h post injection): 0.34 % ID/g
- Tumor to organs ratio, Liver (SK-RC-52.hFAP tumors; 96 h): 41
- Injected dose per gram, Liver (SK-RC-52.hFAP tumors; 96 h post injection): 0.40 % ID/g
- Tumor to organs ratio, Lung (SK-RC-52.hFAP tumors; 6 h): 128.8
- Injected dose per gram, Lung (SK-RC-52.hFAP tumors; 6 h post injection): 0.38 % ID/g
- Tumor to organs ratio, Lung (SK-RC-52.hFAP tumors; 24 h): 196.9
- Injected dose per gram, Lung (SK-RC-52.hFAP tumors; 24 h post injection): 0.10 % ID/g
- Tumor to organs ratio, Lung (SK-RC-52.hFAP tumors; 48 h): 299.5
- Injected dose per gram, Lung (SK-RC-52.hFAP tumors; 48 h post injection): 0.06 % ID/g
- Tumor to organs ratio, Lung (SK-RC-52.hFAP tumors; 72 h): 477.1
- Injected dose per gram, Lung (SK-RC-52.hFAP tumors; 72 h post injection): 0.11 % ID/g
- Tumor to organs ratio, Lung (SK-RC-52.hFAP tumors; 96 h): 344
- Injected dose per gram, Lung (SK-RC-52.hFAP tumors; 96 h post injection): 0.06 % ID/g
- Tumor to organs ratio, Muscle (SK-RC-52.hFAP tumors; 6 h): 187.0
- Injected dose per gram, Muscle (SK-RC-52.hFAP tumors; 6 h post injection): 0.45 % ID/g
- Tumor to organs ratio, Muscle (SK-RC-52.hFAP tumors; 24 h): 159.9
- Injected dose per gram, Muscle (SK-RC-52.hFAP tumors; 24 h post injection): 0.18 % ID/g
- Tumor to organs ratio, Muscle (SK-RC-52.hFAP tumors; 48 h): 1095.4
- Injected dose per gram, Muscle (SK-RC-52.hFAP tumors; 48 h post injection): 0.04 % ID/g
- Tumor to organs ratio, Muscle (SK-RC-52.hFAP tumors; 72 h): 536.6
- Injected dose per gram, Muscle (SK-RC-52.hFAP tumors; 72 h post injection): 0.04 % ID/g
- Tumor to organs ratio, Muscle (SK-RC-52.hFAP tumors; 96 h): 514
- Injected dose per gram, Muscle (SK-RC-52.hFAP tumors; 96 h post injection): 0.03 % ID/g
- Tumor to organs ratio, Spleen (SK-RC-52.hFAP tumors; 6 h): 196.0
- Injected dose per gram, Spleen (SK-RC-52.hFAP tumors; 6 h post injection, 360 min): 0.30 % ID/g
- Injected dose per gram, Spleen (SK-RC-52.hFAP tumors; [2]): ~ 0.3 % ID/g
- Tumor to organs ratio, Spleen (SK-RC-52.hFAP tumors; 24 h): 384.4
- Injected dose per gram, Spleen (SK-RC-52.hFAP tumors; 24 h post injection): 0.16 % ID/g
- Tumor to organs ratio, Spleen (SK-RC-52.hFAP tumors; 48 h): 244.8
- Injected dose per gram, Spleen (SK-RC-52.hFAP tumors; 48 h post injection): 0.10 % ID/g
- Tumor to organs ratio, Spleen (SK-RC-52.hFAP tumors; 72 h): 92.1
- Injected dose per gram, Spleen (SK-RC-52.hFAP tumors; 72 h post injection): 0.24 % ID/g
- Tumor to organs ratio, Spleen (SK-RC-52.hFAP tumors; 96 h): 69
- Injected dose per gram, Spleen (SK-RC-52.hFAP tumors; 96 h post injection): 0.24 % ID/g
- Tumor to organs ratio, Tail (SK-RC-52.hFAP tumors; 6 h): 48.4
- Injected dose per gram, Tail (SK-RC-52.hFAP tumors; 6 h post injection): 1.06 % ID/g
- Tumor to organs ratio, Tail (SK-RC-52.hFAP tumors; 24 h): 65.3
- Injected dose per gram, Tail (SK-RC-52.hFAP tumors; 24 h post injection): 0.31 % ID/g
- Tumor to organs ratio, Tail (SK-RC-52.hFAP tumors; 48 h): 136.9
- Injected dose per gram, Tail (SK-RC-52.hFAP tumors; 48 h post injection): 0.14 % ID/g
- Tumor to organs ratio, Tail (SK-RC-52.hFAP tumors; 72 h): 108.9
- Injected dose per gram, Tail (SK-RC-52.hFAP tumors; 72 h post injection): 0.19 % ID/g
- Tumor to organs ratio, Tail (SK-RC-52.hFAP tumors; 96 h): 98
- Injected dose per gram, Tail (SK-RC-52.hFAP tumors; 96 h post injection): 0.17 % ID/g
- Injected dose per gram, Tumor (SK-RC-52.hFAP tumors; 6 h post injection, 360 min): 48.96 % ID/g
- Injected dose per gram, Tumor (SK-RC-52.hFAP tumors; [2]): ~ 49 % ID/g
- Injected dose per gram, Tumor (SK-RC-52.hFAP tumors; 24 h post injection): 19.78 % ID/g
- Injected dose per gram, Tumor (SK-RC-52.hFAP tumors; 48 h post injection): 16.64 % ID/g
- Injected dose per gram, Tumor (SK-RC-52.hFAP tumors; 72 h post injection): 20.19 % ID/g
- Injected dose per gram, Tumor (SK-RC-52.hFAP tumors; 96 h post injection): 16.26 % ID/g
- tumor uptake / biodistribution profile, in words (SK-RC-52.hFAP tumors): best biodistribution profile
